In brackets after ≈: the same amount, converted by molar mass. Read-outs that look alike come from different tables or passages of the source. Where a SMILES comes first, the peptide text is derived from it.
How the values were obtained:
Assay type in all cases: cell-based
[1] = test system: six bacteria (S. aureus, E. coli, P. aeruginosa; ATCC and clinical isolate); details: for Antibacterial (MIC <64ug/mL): synthesized mature peptide
Protocol: (§1) Antimicrobial testing of 78 cathelicidin MPs was performed in two phases as outlined in Figure 1 . In phase I, 40 peptides (27 extant and 13 ancestral) were selected for testing based on rank (outlined above) and similarity to published marsupial cathelicidins with known antimicrobial activity ([33], [41]–[43]). These peptides were tested against nine bacteria (Staphylococcus aureus ATCC 29213 and clinical isolate, Escherichia coli ATCC 25922 and clinical isolate, Pseudomonas aeruginosa ATCC 27853 and clinical isolate, Streptococcus agalactiae ATCC 12386 and clinical isolate, Streptococcus pneumoniae ATCC 49619) and three fungi (Candida krusei ATCC 6258, Candida parapsilosis ATCC 22019, and Candida albicans clinical isolate). Details regarding these strains are available in Supplementary Table 4 . The antimicrobial activity of cathelicidins was determined as the minimum inhibitory concentration (MIC), which was the lowest concentration of cathelicidin that prevented visible bacterial or fungal growth, relative to the negative control. […] Minimum bactericidal concentration (MBC) and/or minimum fungicidal concentration (MFC) was conducted to determine microbicidal versus static action. Activity against S. aureus ATCC, E. coli ATCC, and Pseudomonas aeruginosa ATCC 27853 was examined in the presence of divalent cations to determine the impact of inhibitors.
In phase II, the remaining 38 peptides (37 extant and one ancestral) were tested against six bacteria (S. aureus ATCC and clinical isolate, E. coli ATCC and clinical isolate, and P. aeruginosa ATCC and clinical isolate). […] No further testing on phase II peptides was performed. Detailed methods for all assays are provided in subsequent sections.
(§2) Antimicrobial activity was determined using a broth microdilution susceptibility assay in 96 well polypropylene plates according to Clinical Laboratory Standards Institute guidelines M07-A and M26A as described previously ([33], [42], [43]). The bacterial and fungal isolates from humans and animals used in this study are outlined in Supplementary Table 4 . Only yeasts were included in the panel of fungi as they have been used in the susceptibility testing of eutherian ([3], [81]–[83]) and other marsupial cathelicidins previously ([33], [42], [43]). Cathelicidin mature peptides were solubilized in DMSO and serially diluted in duplicate from 128-0.25μg/mL in a final volume of 100µL. For bacteria, cathelicidins were diluted in Mueller Hinton Broth (MHB) with or without 10% lysed horse blood, and with (MH II B) or without (MHB) calcium and magnesium cations. For fungi, cathelicidins were diluted in Roswell Park Memorial Institute medium (RPMI)-1640 MOPS. Ampicillin or tetracycline were included as a positive control for Gram-positive and -negative bacteria respectively, while amphotericin B was used for fungi. A media-only negative control and growth control (no cathelicidin) were also included on each plate. Bacteria were sub-cultured on Muller Hinton agar (MHA) or sheep blood agar (BA), and fungi on Sabouraud dextrose agar (SAB), 20–24 hours prior to the test. Colonies were suspended in saline, the concentration adjusted to a 0.5 McFarland standard, and then diluted in media to a concentration of 1.0 x 10^6 cells/mL. Then, 100μL was added to each well of the cathelicidin dilution plate, giving a final inoculum density of 5 x 10^5 CFU/mL and cathelicidin concentration of 64-0.125μg/mL. Colony counts were performed on MHA/BA/SAB to confirm inoculum density. All plates were incubated at 35°C for 20–24 hours, depending on the strain.
(§3) Colonies were counted and compared to the colony count of the starting inoculum.

[2] = test system: three fungi (Candida krusei, Candida parapsilosis, Candida albicans); experiment: Antifungal screening, summary over the panel of fungi (broth microdilution)
Protocol: as §1, §2, §3

[3] = test system: Staphylococcus aureus clinical isolate – animal, methicillin-resistant (MRSA); details: clinical isolate – animal, methicillin-resistant
How it was run: (§4)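 Endpoint is visible-growth inhibition (MIC) after 35°C, 20–24 h incubation. Yeast medium was RPMI-1640 MOPS; bacterial medium was Mueller Hinton broth, with or without divalent cations and lysed horse blood. Final peptide range 64-0.125μg/mL.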

[4] = test system: Staphylococcus aureus clinical isolate – animal, penicillin-resistant (PRSA); details: clinical isolate – animal, penicillin-resistant (PRSA)
How it was run: as §4

[5] = test system: Candida albicans Clinical isolate - human; experiment: microbe, parasite or virus in culture; details: Clinical isolate - human
How it was run: as §4

[6] = test system: Streptococcus agalactiae ATCC 12386; experiment: microbe, parasite or virus in culture; details: ATCC 12386
How it was run: as §4

[7] = test system: Candida parapsilosis ATCC 22019; experiment: microbe, parasite or virus in culture; details: ATCC 22019
How it was run: as §4

[8] = test system: Streptococcus agalactiae Clinical isolate - animal; experiment: microbe, parasite or virus in culture; details: clinical isolate - animal
How it was run: as §4

Candida krusei ATCC 6258 = experiment: microbe, parasite or virus in culture; details: ATCC 6258
How it was run: as §4

[9] = test system: Streptococcus pneumoniae ATCC 49619; experiment: microbe, parasite or virus in culture; details: ATCC 49619
How it was run: as §4

[10] = test system: Pseudomonas aeruginosa clinical isolate - animal; experiment: microbe, parasite or virus in culture; details: clinical isolate - animal
How it was run: (§5)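 Bacteria at a final 5 x 10^5 CFU/mL were incubated 20–24 h at 35 °C with DMSO-solubilized peptides serially diluted to 64–0.125 μg/mL in Mueller Hinton broth (± lysed horse blood, ± divalent cations). MIC read as no visible growth; bactericidal action from colony counts compared with the inoculum.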

[11] = test system: Pseudomonas aeruginosa ATCC 27853; experiment: microbe, parasite or virus in culture; details: ATCC 27853
How it was run: as §5

[12] = test system: Staphylococcus aureus clinical isolate - animal; experiment: microbe, parasite or virus in culture; details: clinical isolate - animal
How it was run: as §5

[13] = test system: Escherichia coli ATCC 25922; experiment: microbe, parasite or virus in culture; details: ATCC 25922
How it was run: as §5

[14] = test system: Staphylococcus aureus ATCC 29213; experiment: microbe, parasite or virus in culture; details: ATCC 29213
How it was run: as §5

[15] = test system: Escherichia coli clinical isolate - animal; experiment: microbe, parasite or virus in culture; details: clinical isolate - animal
How it was run: as §5

[16] = read-out: MIC in the presence of cations P. aeruginosa
[17] = read-out: MIC in the presence of cations E. coli ATCC

Row | Molecule | MBC MRSA [3] [µM] | MIC MRSA [3] [µM] | MBC PRSA [4] [µM] | MIC PRSA [4] [µM] | MIC C. albicans [5] | MBC S. agalactiae [8] [µM] | MIC S. agalactiae [8] [µM] | MFC C. krusei ATCC (Candida krusei ATCC 6258) | MBC P. aeruginosa [10] [µM] | MIC ([10]; read-out: MIC P. aeruginosa) [µM] | MIC [10, 16] [µM] | MBC S. aureus [12] | MIC S. aureus [12] | MIC in the presence of cations S. aureus [12] | MBC E. coli ATCC [13] [µM] | MIC ([13]; read-out: MIC E. coli ATCC) [µM] | MIC [13, 17] [µM] | MBC S. aureus ATCC [14] | MIC S. aureus ATCC [14] | MIC in the presence of cations S. aureus ATCC [14] | other results
1 | PELLRSRRSPLPRRKKGSKKNSYKTGGYSVIALGKSNVHKAPYMEAL [TrvuCath1] |  |  |  |  |  |  |  |  |  |  |  |  |  |  |  |  |  |  |  |  | Antibacterial (MIC <64ug/mL) ([1]; broth microdilution screening, phase I or II, Y/N summary over the bacteria tested): N (Antibacterial (MIC <64ug/mL)); Antifungal (MIC <64ug/mL) ([2]; broth microdilution screening, phase I, Y/N summary over the fungi tested, synthesized mature peptide): N (Antifungal (MIC <64ug/mL))
2 | PGKRRGKLIKKGGKGVKRLLPKNGIIILPPG [MAP5, marsupial ancestral peptide, predicted by ANCESCON and GASP, synthesized] |  |  |  |  |  |  |  |  |  |  |  |  |  |  |  |  |  |  |  |  | Antibacterial (MIC <64ug/mL) ([1]; antimicrobial screening Phase I, Y/N summary over bacteria tested, broth microdilution): N (Antibacterial (MIC <64ug/mL)); Antifungal (MIC <64ug/mL) ([2]; synthesized mature peptide, antimicrobial screening Phase I, Y/N summary over fungi tested, broth microdilution): N (Antifungal (MIC <64ug/mL))
3 | CC[C@H](C)[C@H](NC(=O)[C@H](CCCNC(=N)N)NC(=O)[C@H](CC(=O)O)NC(=O)[C@H](Cc1c[nH]c2ccccc12)NC(=O)[C@@H](NC(=O)[C@H](CCCNC(=N)N)NC(=O)[C@H](CCCNC(=N)N)NC(=O)[C@@H](NC(=O)[C@H](CC(C)C)NC(=O)[C@H](CCCNC(=N)N)NC(=O)CNC(=O)[C@H](CC(C)C)NC(=O)[C@H](CCCNC(=N)N)NC(=O)CNC(=O)[C@H](CCCNC(=N)N)NC(=O)[C@@H](N)CCCCN)[C@@H](C)CC)[C@@H](C)CC)C(=O)N[C@@H](CCCNC(=N)N)C(=O)NCC(=O)NCC(=O)O [MyfaCath7] (H-KRGRLGRLIRRIWDRIRGG-OH) | 3.4 (≈ 7.94 µg/mL) | 3.4 (≈ 7.94 µg/mL) | 1.7 (≈ 3.97 µg/mL) | 1.7 (≈ 3.97 µg/mL) | 27.4 µM | 13.7 (≈ 32 µg/mL) | 13.7 (≈ 32 µg/mL) | 6.8 µM | > 27.4 | 13.7 (≈ 32 µg/mL) | 27.4 | 3.4 (3.4)^3.4 µM | 3.4 (3.4)^3.4 µM | 3.4 (3.4)^3.4 µM | 1.7 (≈ 3.97 µg/mL) | 1.7 (≈ 3.97 µg/mL) | 3.4 | 3.4 (3.4)^3.4 µM | 3.4 (3.4)^3.4 µM | 3.4 (3.4)^3.4 µM | MFC C. albicans [5]: 27.4 µM (≈ 64 µg/mL); MIC ([6]; read-out: MIC S. agalactiae ATCC): >27.4 µM; MFC C. parapsilosis ATCC [7]: 13.7 µM (≈ 32 µg/mL); MIC C. parapsilosis ATCC [7]: 13.7 µM (≈ 32 µg/mL); MIC C. krusei ATCC (Candida krusei ATCC 6258): 6.8 µM (≈ 15.9 µg/mL); MIC ([9]; read-out: MIC S. pneumoniae ATCC): >27.4 µM; MIC against at least one strain [1]: 4 µg/mL (≈ 1.71 µM); MIC ([11]; read-out: MIC P. aeruginosa ATCC): >27.4 µM; MBC E. coli [15]: 1.7 (1.7)^1.7 µM; MIC E. coli [15]: 1.7 (1.7)^1.7 µM; MIC in the presence of cations E. coli [15]: 1.7 (1.7)^1.7 µM
4 | SRGLRKKLKKLGKSIKKRLKNIKIGYSIPFPG [PspeCath1p] |  |  |  |  |  |  |  |  |  |  |  |  |  |  |  |  |  |  |  |  | Antifungal (MIC <64ug/mL) ([2]; Y/N summary over the fungi screened, broth microdilution, NT = not tested): Y (Antifungal (MIC <64ug/mL))
5 | CC[C@H](C)[C@H](NC(=O)[C@H](CCCNC(=N)N)NC(=O)CNC(=O)[C@H](CCCNC(=N)N)NC(=O)[C@@H](N)CCCCN)C(=O)N[C@@H](Cc1ccccc1)C(=O)N[C@@H](CCCNC(=N)N)C(=O)N[C@@H](CCCCN)C(=O)N[C@@H](Cc1ccccc1)C(=O)N[C@@H](CCCCN)C(=O)N[C@@H](CCCCN)C(=O)N[C@@H](CC(C)C)C(=O)N[C@@H](CC(C)C)C(=O)N[C@@H](CCCCN)C(=O)N[C@@H](CCCCN)C(=O)N[C@@H](CC(C)C)C(=O)NCC(=O)N[C@@H](CC(=O)O)C(=O)N[C@@H](CCCCN)C(=O)N[C@H](C(=O)N[C@@H](CCCCN)C(=O)N[C@@H](CC(N)=O)C(=O)N[C@H](C(=O)N[C@@H](CC(C)C)C(=O)N[C@@H](CCCCN)C(=O)N[C@@H](CC(N)=O)C(=O)N[C@@H](C)C(=O)N[C@@H](CCCNC(=N)N)C(=O)N[C@@H](CC(N)=O)C(=O)NCC(=O)N[C@@H](Cc1ccccc1)C(=O)N[C@@H](CC(C)C)C(=O)NCC(=O)N1CCC[C@H]1C(=O)N[C@H](C(=O)NCC(=O)N[C@@H](CCCNC(=N)N)C(=O)O)[C@@H](C)CC)[C@@H](C)O)[C@@H](C)CC [MAP8] (H-KRGRIFRKFKKLLKKLGDKIKNTLKNARNGFLGPIGR-OH) | > 14.8 | 14.8 (≈ 63.8 µg/mL) | 7.4 (≈ 31.9 µg/mL) | 3.7 (≈ 16 µg/mL) | >64 µg/mL | 7.4 (≈ 31.9 µg/mL) | 7.4 (≈ 31.9 µg/mL) | > 64 µg/mL | 7.4 (≈ 31.9 µg/mL) | 3.7 (≈ 16 µg/mL) | 3.7 | 7.4 (7.4)^7.4 µM | 7.4 (7.4)^7.4 µM | 7.4 (7.4)^7.4 µM | 7.4 (≈ 31.9 µg/mL) | 3.7 (≈ 16 µg/mL) | 3.7 | 7.4 (7.4)^7.4 µM | 7.4 (7.4)^7.4 µM | 7.4 (7.4)^7.4 µM | MBC S. agalactiae ATCC [6]: 14.8 µM (≈ 63.8 µg/mL); MIC S. agalactiae ATCC [6]: 14.8 µM (≈ 63.8 µg/mL); MIC ([7]; read-out: MIC C. parapsilosis ATCC): 7.4 µM (≈ 31.9 µg/mL); MBC S. pneumoniae ATCC [9]: 7.4 µM (≈ 31.9 µg/mL); MIC S. pneumoniae ATCC [9]: 7.4 µM (≈ 31.9 µg/mL); MBC P. aeruginosa ATCC [11]: 3.7 (3.7)^3.7 µM; MIC P. aeruginosa ATCC [11]: 3.7 (3.7)^3.7 µM; MIC in the presence of cations P. aeruginosa ATCC [11]: 3.7 (3.7)^3.7 µM; MBC E. coli [15]: 3.7 µM (≈ 16 µg/mL); MIC [15]: 3.7 µM (≈ 16 µg/mL); MIC in the presence of cations E. coli [15]: 1.8 µM
